In patent publication US20140163456A1, “METHOD OF PRODUCING SUBSTANCES WITH SUPERSATURATED GAS, TRANSDERMAL DELIVERY DEVICE THEREOF, AND USES THEREOF” (INVISIDERM, LLC, priority 2011, published 2014):

Tests used:
individuals [1] = assay: Measurement of blood flow: Skin Perfusion Pressure (SensiLase System) on right toe, capillary blood flow change; type: in vivo, human
Procedure: (§1) The treatment was administered by having an individual insert the left thumb into the open-ended delivery outlet of a device disclosed herein creating a seal. The digit will be “bathed” for five minutes with a vapor including supersaturated dissolved molecular carbon dioxide from a canister providing pure, medical-grade carbon dioxide. Nine individuals were examined.
Tissue perfusion in distal arteries was accessed using a SensiLase System (a FDA-cleared device) and measuring Skin Perfusion Pressure (SPP) and Pulse Volume Recording (PVR). SPP is a pressure measurement in mmHg that assess local blood perfusion in capillaries using a laser Doppler to measure reactive hyperemia, which reflects microcirculation for distal arterial blood flow. PVR is a measurement of plethysmography to assess changes in arterial blood volume. A change in capillary blood flow (CBF) is calculated by determining the change in SPP values over time. For this study, the CBF values of all post-treatment measurements were calculated by dividing the post-treatment SPP value by the pre-treatment SPP value. A measurement of SPP was performed on the individual's right toe at six time points 1) 5 minutes before treatment (pre-treatment); 2) 5 minutes post-treatment; 3) 30 minutes post-treatment; 4) 60 minutes post-treatment; 5) 120 minutes post-treatment; and 6) 240 minutes post-treatment.

individuals [2] = assay: Measurement of brachial diastolic and systolic blood pressure on right upper arm; type: in vivo, human
Procedure: as §1
To conduct this study, individuals from the study described in Example 1 had there blood pressure taken. A measurement of both brachial diastolic blood pressure and systolic blood pressure was performed on the individual's right upper arm at six time points 1) 5 minutes before treatment (pre-treatment); 2) 5 minutes post-treatment; 3) 30 minutes post-treatment; 4) 60 minutes post-treatment; 5) 120 minutes post-treatment; and 6) 240 minutes post-treatment.

[3] = nine individuals, 5 to 240 min post-treatment
[4] = over the course of the entire 240 minute study

O=C=O [molecular carbon dioxide, carbon dioxide] was tested, and the blood flow (individuals [1]; [3]) was “increases blood flow in all individuals examined at some point during the time period measured”, the “sustained increases in capillary blood flow” value (individuals [1]; [4]) was “six of the nine patients showed sustained increases in capillary blood flow” and the blood pressure (individuals [2]; [3]) was “decreased blood pressure in all individuals examined at some point during the time period measured”. The “diastolic and systolic blood pressure” value (individuals [2]; [4]) was “Seven of the nine individuals studied showed decreased diastolic and systolic blood pressure”.
